Reference: patent US20210186997A1, “METHODS AND COMPOSITIONS FOR INCREASING NAD LEVEL IN MAMMALS WITH D-RIBOSE AND VITAMIN B3” (Bioenergy Life Science, Inc., priority 2018, published 2021)
“Also recorded” adds a separate entry of the source.

What was measured:
NAD+ = experiment: Experiment 3: NAD+ in blood by LC/MS/MS, oral dosing twice daily for five days; type: in vivo, Sprague-Dawley male rats; conditions: Nicotinamide control (coated nicotinamide 108 mg/kg PO BID), relative to RiaGev dose-response line, FIG. 11
Description: Eighteen Sprague-Dawley male rats were selected as test animals in the study, with three rats for each of six treatment groups. Sprague-Dawley male rats were selected because they have been widely used in similar experiments with reliable results. The use of three rats per group offers the minimum number required to calculate useful means and standard deviations for graphical representation of the data. For five consecutive days, the rats were dosed at approximately 7:30-8:30 a.m. and at approximately 4:30-5:45 p.m. Blood was collected approximately 0.5 to 1.5 hours following each p.m. dosing and immediately processed and assayed for NAD+, NMN, and NR by LC/MS/MS. The timing of the supplementation doses was chosen to mimic behavior in humans and other non-nocturnal mammals (i.e., diurnal mammals) of eating breakfast in the morning and dinner in the early evening by administering the doses to the animals at around those times. […] Thus the evening sampling time for the rats would correspond to the morning for humans and other diurnal mammals. The animals were humanely euthanized after the final blood draw and representative samples of the liver, biceps muscle, peripheral adipose tissue, and whole brain were collected, snap frozen, extracted, and assayed for NAD+, NMN, and NR by LC/MS/MS. […]

NR levels = experiment: Experiment 1: NR levels in blood by LC/MS after bolus administration; type: in vivo, Sprague-Dawley rats; conditions: male rats, bolus 100 mg/kg, 0.25-24 hours after feeding, compared to baseline, FIG. 2
Description: Four groups of four male Sprague-Dawley rats were each bolus administered the different compounds identified in the table below at a dosage of 100 mg per kg of body weight: [table] The blood drawn from each of the groups at the increments referenced above were also measured by LC/MS for NR levels. The measured NR levels are charted in FIG. 2, with each data point being the average of three animals of the same sex.

NAD levels = experiment: Experiment 1: NAD levels in blood by LC/MS after bolus administration; type: in vivo, Sprague-Dawley rats; conditions: for NAD levels in blood: male rats, bolus 100 mg per kg of body weight, 0.25-24 hours after feeding, compared to baseline, FIG. 1
Description: Four groups of four male Sprague-Dawley rats were each bolus administered the different compounds identified in the table below at a dosage of 100 mg per kg of body weight:
A blood sample of 0.1 ml was drawn from each rat of each group at increments of 0.25, 0.5, 1, 2, 4, 8 and 24 hours after feeding. Each of the blood samples were then measured by Liquid Chromatography/Mass Spectrometry (LC/MS) for NAD levels. The measured NAD levels are charted in FIG. 1, with each data point being the average of the four rats of each group.

Structure (SMILES) | blood NAD concentration change over its base (water control) level (NAD+) | NR levels in blood (NR levels) | NAD levels in blood (NAD levels) | time to peak blood NAD level (NAD levels; after consumption)
NC(=O)c1cccnc1 [Nicotinamide] | outside of the line | – | – | –
O=C[C@H](O)[C@H](O)[C@H](O)CO [D-ribose] | – | enhance NR levels | elevated NAD levels; also recorded: increases NAD levels | –
O=C(O)c1cccnc1 [Niacin, Nicotinic Acid (Niacin)] | – | enhance NR levels | elevated NAD levels | –
NC(=O)c1ccc[n+]([C@@H]2O[C@H](CO)[C@@H](O)[C@H]2O)c1 [Nicotinamide Riboside (NR), Nicotinamide Riboside] | – | – | highest peak value | about 8 hours
